These results are taken from ChEMBL document CHEMBL3045585, “Combinatorial approach: identification of potential antifungals from triazole minilibraries” (2011).

≈ marks a conversion by molar mass, not a printed value.

Common to all, as to format: functional
For one assay, the system named is Fusarium oxysporum. Nature of the assay: Antifungal activity against Fusarium oxysporum NCIM 1008 by serial dilution method.
In a further assay the test system is Aspergillus flavus. Briefly: Antifungal activity against Aspergillus flavus NCIM 536 by serial dilution method.
The subject of another assay is Penicillium chrysogenum. Nature of the assay: Antifungal activity against Penicillium chrysogenum NCIM 725 by serial dilution method.
In a further assay the test system is Aspergillus niger. Briefly: Antifungal activity against Aspergillus niger NCIM 945 by serial dilution method.

As to `COc1ccc(/C=N/n2c(SCc3ccccc3)nnc2-c2ccccc2N)cc1`, the minimal inhibitory concentration (MIC) (usually the smallest concentration in the dilution series that meets the test's criterion for growth inhibition) against Fusarium oxysporum stood at 250 µg/mL (≈ 602 µM); in the assay on Aspergillus flavus, 32 µg/mL (≈ 77 µM); with Penicillium chrysogenum it was 125 µg/mL (≈ 301 µM); with Aspergillus niger, 62 µg/mL (≈ 149 µM).
The matching figures for `Nc1ccccc1-c1nnc(SCc2ccccc2)n1/N=C/c1ccc(Cl)cc1`: 62 µg/mL (≈ 148 µM), 125 µg/mL (≈ 298 µM), 31 µg/mL (≈ 73.8 µM) and 125 µg/mL (≈ 298 µM).
The corresponding values for `COc1ccc(/C=N/n2c(SCc3ccccc3)nnc2-c2ccncc2)cc1` are 250 µg/mL (≈ 623 µM), 250 µg/mL (≈ 623 µM), 125 µg/mL (≈ 311 µM) and 31 µg/mL (≈ 77.2 µM).
The corresponding values for `CN(C)c1ccc(/C=N/n2c(SCc3ccccc3)nnc2-c2ccccc2N)cc1` are 32 µg/mL (≈ 74.7 µM), 125 µg/mL (≈ 292 µM), 250 µg/mL (≈ 583 µM) and 62 µg/mL (≈ 145 µM).
